According to patent US20220152160A1, “DOSING REGIMEN” (Novo Nordisk A/S, priority 2013, published 2022):

What was measured:
[1] = tested on: insulin-naïve participants with T2DM; experiment: Clinical Trial 1 (26-week, treat-to-target): glycaemic control (HbA1c, FPG), IDeg U-200 vs IGlar; assay type: in vivo, human; details: whole population
From the text: (§1) This phase 3a, 26-week, randomized, controlled, open-label, multinational, treat-to-target, non-inferiority trial compared the efficacy and safety of IDeg U-200 (i.e. 200 U/mL) and IGlar (100 U/mL) both administered OD in combination with metformin (met) ±DPP-4 inhibitor in insulin-naïve participants with T2DM previously treated with oral antidiabetic drugs OAD(s), who qualified for intensification of treatment. The trial was open-label because the pen devices used to administer the basal insulins were distinctively different and blinding was, therefore, impossible.
Participants who were insulin-naïve adults with T2DM for at least 6 months, HbA1, 7-10% (inclusive), BMI s 45 kg/m^2, and previously treated with metformin with or without additional OADs for at least 3 months were eligible to participate in the study.
(§2) Using the interactive voice/web response system, eligible participants were randomized 1:1 to either once-daily IDeg U-200 (IDeg 200 U/mL, 3 mL FlexTouch®, Novo Nordisk, Bagsvård, Denmark) or once-daily IGlar (Lantus® 100 U/mL, 3 mL SoloStar® Sanofi Aventis U.S. LLC) and continued metformin ±DPP-4 inhibitor treatment. Trial participants were instructed to continue the same total daily dose of metformin and DPP-4 inhibitor treatment as before the start of the trial.
(§3) Insulin degludec was administered once-daily with the main evening meal and, consistent with its product labelling, IGlar was administered once-daily (OD) at the same time each day. Either treatment was injected subcutaneously in the thigh, upper arm or abdomen. The starting dose for each was 10 U, and during the treatment period, the insulin dose was systematically titrated using a treat-to-target approach striving for a pre-breakfast self-measured plasma glucose (SMPG) level of 4.0-4.9 mmol/L (71-89 mg/dL). Both IDeg and IGlar were similarly titrated once weekly in 2 U increments. The treatment period was 26 weeks and doses were individually titrated in an effort to achieve the same glucose targets with both treatments.
The primary endpoint for this study was change in HbA1c (%) from baseline after 26 weeks of treatment. Secondary confirmatory endpoints tested were number of treatment-emergent confirmed hypoglycaemic episodes, change from baseline in central laboratory-measured fasting plasma glucose (FPG), within subject variability as measured by coefficient of variation (%), and frequency of participants achieving HbA1c<7% without hypoglycaemic episodes. The supportive secondary endpoints included 9-point SMPG profiles, frequency of participants achieving HbA1c<7%, and Health-Related Quality of Life (HRQoL; Short Form 36 [SF-36 v.2] questionnaire) scores. The safety assessments were adverse events, hypoglycaemic episodes, insulin dose, body weight, physical examination, vital signs, fundoscopy, electrocardiogram (ECG) and laboratory tests (including antibodies). Confirmed hypoglycaemic episodes were defined as episodes with a PG value of <3.1 mmol/L (56 mg/dL) and severe episodes requiring assistance.^7 Hypoglycaemic episodes occurring between 00:01 h and 05:59 h (inclusive) were classified as nocturnal.
Analyses of all efficacy endpoints were based on the full analysis set (FAS) which included all randomized participants. The safety analysis set included all participants who received at least one dose of the investigational product or the comparator. Missing values were imputed using the last observation carried forward (LOCF) method.
The primary objective of this trial was to confirm the non-inferiority of IDeg U-200 OD to IGlar OD as assessed by change in HbA1c from baseline after 26 weeks of treatment. Non-inferiority was confirmed if the upper limit of the 95% confidence interval (Cl) for the treatment difference was 50.4%. […]

[2] = tested on: insulin-naïve participants with T2DM; details: human, in vivo
From the text: as §1, §2, §3
The primary endpoint for this study was change in HbA1c (%) from baseline after 26 weeks of treatment. Secondary confirmatory endpoints tested were number of treatment-emergent confirmed hypoglycaemic episodes, change from baseline in central laboratory-measured fasting plasma glucose (FPG), within subject variability as measured by coefficient of variation (%), and frequency of participants achieving HbA1c<7% without hypoglycaemic episodes. […]
Treatment difference in change from baseline in HbA1c after 26 weeks was analyzed using an Analysis of Variance (ANOVA) model with treatment, antidiabetic treatment at screening, sex and region (Europe, North America, or South Africa) as fixed factors, and age and baseline HbA1c as covariates. […] The number of treatment-emergent confirmed hypoglycaemic episodes was analyzed using a negative binomial regression model including treatment, antidiabetic therapy at screening, sex and region as fixed factors, and age as covariate. […]

[3] = in vivo; cited from earlier work

With “NεB29-(Nα—(HOOC(CH2)14CO)-γ-Glu)des(B30)-human insulin [insulin degludec]” the “non-inferiority to IGlar in change in HbA1c from baseline” value ([1]; 26 weeks) was “non-inferiority”, the “estimated treatment difference (ETD) IDeg-IGlar in change in HbA1c” value ([1]; 26 weeks, 95% CI −0.11, 0.19) was 0.04 and the “ETD in FPG (IDeg vs IGlar)” value ([1]; 26 weeks, 95% CI −0.78, −0.06) was −0.42. For the same substance, the “Central laboratory-measured FPG decrease” value ([1]; after 26 weeks) was 4.0 mmol/L, the “Central laboratory-measured FPG reached” value ([1]; after 26 weeks) was 5.7 mmol/L and the “FPG reduction compared with IGlar” value ([1]; after 26 weeks) was “statistically significantly greater FPG reduction”. For the same substance, the “%: Percentage of subjects experiencing at least one episode” value [2] was 6.1%, the “ERR IDeg/IGlar, nocturnal confirmed hypoglycaemia” value [2] was 0.64 and the “estimated rate ratio (ERR) IDeg/IGlar, confirmed hypoglycaemia” value [2] was 0.86. For the same substance, the “rate of nocturnal confirmed hypoglycaemic episodes” value [2] was 0.18 episodes/patient-year and the duration of action [3] was “greater than 42 hours”.
